Molecular target: T1, rhCRTh2 (Homo sapiens, UniProt Q9Y5Y4)
T1 construct: expressed in transfected cells; host or cells: HEK cells (membrane preparation)
T1 sequence (Q9Y5Y4 1-395): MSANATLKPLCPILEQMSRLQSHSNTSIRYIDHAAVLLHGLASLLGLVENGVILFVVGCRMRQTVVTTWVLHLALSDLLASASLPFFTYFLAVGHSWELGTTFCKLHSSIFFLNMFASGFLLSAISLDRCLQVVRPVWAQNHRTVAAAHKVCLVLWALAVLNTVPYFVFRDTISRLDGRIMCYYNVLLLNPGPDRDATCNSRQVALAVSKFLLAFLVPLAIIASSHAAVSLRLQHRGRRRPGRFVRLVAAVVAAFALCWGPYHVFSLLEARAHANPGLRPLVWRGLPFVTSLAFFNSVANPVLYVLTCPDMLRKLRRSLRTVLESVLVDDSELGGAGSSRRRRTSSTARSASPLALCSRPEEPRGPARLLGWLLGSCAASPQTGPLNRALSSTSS
Assay: Ligand binding assay ([3H]PGD2 displacement, SPA, HEK cell membranes)
Conditions: [3H]PGD2 binding to membranes of HEK cells expressing rhCRTh2/Gα16, SPA beads, room temperature, 2 hours
Method: [^3H]PGD2 was purchased from Perkin Elmer Life Sciences with a specific activity of 100-210 Ci/mmol.
HEK cells expressing rhCRTh2/Gα16 were routinely maintained in DMEM containing 10% Foetal Bovine Serum (HyClone), 1 mg/ml geneticin, 2 mM L-glutamine and 1% non-essential amino acids. For the preparation of membranes, the adherent transfected HEK cells were grown to confluence in two layer tissue culture factories (Fisher, catalogue number TKT-170-070E). Maximal levels of receptor expression were induced by addition of 500 mM sodium butyrate for the last 18 hours of culture. The adherent cells were washed once with phosphate buffered saline (PBS, 50 ml per cell factory) and detached by the addition of 50 ml per cell factory of ice-cold membrane homogenisation buffer [20 mM HEPES (pH 7.4), 0.1 mM dithiothreitol, 1 mM EDTA, 0.1 mM phenyl methyl sulphonyl fluoride and 100 μg/ml bacitracin]. Cells were pelleted by centrifugation at 220×g for 10 minutes at 4° C., re-suspended in half the original volume of fresh membrane homogenisation buffer and disrupted using a Polytron homogeniser for 2×20 second bursts keeping the tube in ice at all times. […] The final pellet was re-suspended in 4 ml of membrane homogenisation buffer per cell factory used and the protein content determined. […]
All assays were performed in Corning clear bottomed, white 96-well NBS plates (Fisher). […] (The optimum coating concentrations were determined for each batch of membranes) The beads were pelleted by centrifugation (800×g for 7 minutes at 4° C.), washed once with assay buffer (50 mM HEPES pH 7.4 containing 5 mM magnesium chloride) and finally re-suspended in assay buffer at a bead concentration of 10 mg/ml.
Compounds and DK-PGD2 were dissolved in DMSO and diluted in the same solvent to 100× the required final concentration. […] The assay plate was incubated at room temperature for 2 hours and counted on a Wallac Microbeta liquid scintillation counter (1 minute per well).

First: Cc1c(Oc2ccc(Cl)cc2)c2cc(S(C)(=O)=O)ccc2n1CC(=O)O [Example 5, 3-(4-chlorophenoxy)-2-methyl-5-(methylsulfonyl)-1H-indole-1-acetic acid]
Second: Cc1c(Oc2ccc(Cl)cc2)c2cc(C(F)(F)F)ccc2n1CC(=O)O [Example 6, 3-(4-chlorophenoxy)-2-methyl-5-(trifluoromethyl)-1H-indole-1-acetic acid]
The IC50 of the first is 8-fold higher: 89.1 nM for the first, 11.2 nM for the second. The second is the more potent here.

Cc1c(Oc2ccc(C(=O)O)cc2)c2cc(F)ccc2n1CC(=O)O [Example 9, 3-(4-Carboxyphenoxy)-5-fluoro-2-methyl-1H-indole-1-acetic acid] showed an IC50 of 178 nM.

System: not given
Assay: not given
Conditions: not given

First: Cc1c(Oc2ccc(S(C)(=O)=O)cc2)c2cc(F)ccc2n1CC(=O)O [Example 2, 5-Fluoro-2-methyl-3-[4-(methylsulfonyl)phenoxy]-1H-indole-1-acetic acid]
Second: CNC(=O)c1ccc(Oc2c(C)n(CC(=O)O)c3ccc(F)cc23)cc1 [Example 10, 5-Fluoro-2-methyl-3-[4-[(methylamino)carbonyl]phenoxy]-1H-indole-1-acetic acid]
The melting point of the first is lower: 204 to 207 °C for the first, 217 to 218 °C for the second.

First: CCNC(=O)c1ccc(Oc2c(C)n(CC(=O)O)c3ccc(F)cc23)cc1 [Example 11, 3-[4-[(Ethylamino)carbonyl]phenoxy]-5-fluoro-2-methyl-1H-indole-1-acetic acid]
Second: COC(=O)c1ccc(Oc2c(C)n(CC(=O)O)c3ccc(F)cc23)cc1 [Example 14, 5-Fluoro-3-[4-(methoxycarbonyl)phenoxy]-2-methyl-1H-indole-1-acetic acid]
The melting point of the first is higher: 220 to 222 °C for the first, 195 to 196 °C for the second.

First: Cc1c(Oc2ccc(C(=O)NC(C)C)cc2)c2cc(F)ccc2n1CC(=O)O [Example 12, 5-Fluoro-2-methyl-3-[4-[[(1-methylethyl)amino]carbonyl]phenoxy]-1H-indole-1-acetic acid]
Second: COC(=O)c1ccc(Oc2c(C)n(CC(=O)O)c3ccc(Cl)cc23)cc1 [Example 15, 5-Chloro-3-[4-(methoxycarbonyl)phenoxy]-2-methyl-1H-indole-1-acetic acid]
The melting point of the first is higher: 218 to 219 °C for the first, 196 to 197 °C for the second.

Cc1c(Oc2ccc(C(=O)O)cc2)c2cc(Cl)ccc2n1CC(=O)O [Example 13, 3-(4-Carboxyphenoxy)-5-chloro-2-methyl-1H-indole-1-acetic acid] showed a melting point of 215 to 216 °C.

In the case of CNC(=O)c1ccc(Oc2c(C)n(CC(=O)O)c3ccc(Cl)cc23)cc1 [Example 16, 5-Chloro-2-methyl-3-[4-[(methylamino)carbonyl]phenoxy]-1H-indole-1-acetic acid], the melting point is reported as 225 °C (dec.).
With CCNC(=O)c1ccc(Oc2c(C)n(CC(=O)O)c3ccc(Cl)cc23)cc1 [Example 17, 5-Chloro-3-[4-[(ethylamino)carbonyl]phenoxy]-2-methyl-1H-indole-1-acetic acid] the melting point was 220 °C (dec.).
With Cc1c(Oc2ccc(C(=O)NC(C)C)cc2)c2cc(Cl)ccc2n1CC(=O)[O-].[Na+] [Example 18, Sodium 5-Chloro-2-methyl-3-[4-[[(1-methylethyl)amino]carbonyl]phenoxy]-1H-indole-1-acetate] the melting point was under 275 °C.
